This note sets out measurements from patent publication US20040023998A1, “Novel crystals of 1,3,4-oxadiazole derivatives, process for producing the crystals and medicines containing the same as the active ingredient” (priority 2000, published 2004).

The text on data set [1]:
Moreover, for removing tetrahydrofuran in this Type-1 crystals and obtaining Type-1 crystals, it is necessary to reflux them in ethanol.

The nature of data set [2]: Stability test (storage of solid, residual ratio by HPLC). Format: physicochemical. The settings on record: all storage conditions of Table 6. As for the experimental part:
The compound of the present invention (about 50 mg) was weighed in a test tube and stored under the following conditions. The stored sample was analyzed using high performance liquid chromatography (HPLC) to calculate its residual ratio by the internal standard method.
Condition 1: 60° C., sealed, 1 month;
Condition 2: 40° C., open, 75%RH (relative humidity), 3 months;
Condition 3: 40° C., sealed, 6 months;
Condition 4: 25° C., open, 60%RH (relative humidity), 12 months;
Condition 5: 5° C., sealed, 12 months;
The HPLC measurement was carried out under the same conditions as in Example 2 described above.

Data set [3] can be described thus: Solubility of compound of the present invention in various solvents (saturated solution, HPLC). Format: physicochemical. Here is the method:
The compound of the present invention was added to various solvents so that a saturated state was achieved. Each mixture was stirred for 30 seconds by means of a laboratory mixer and then allowed to stand for 4 minutes and 30 seconds. The stirring and standing operations were repeated seven times. The mixture was centrifuged at 3000 rpm for 15 minutes and isoamyl 4-hydroxybenzoate was added as an internal standard to the resulting supernatant. Furthermore, acetonitrile was added to the supernatant to form a sample solution. A portion (8 μL) of each solution was analyzed using high performance liquid chromatography (HPLC) under the following conditions to determine its concentration by the internal standard method, and thereby solubility was calculated. Additionally, pH at the dissolution was measured.
HPLC measuring conditions
Eluent: 20 mmol/L aqueous potassium dihydrogen phosphate solution (pH 8.0, sodium hydroxide)/acetonitrile=65/35
As the buffer (buffer solution) in Table 5, Briton-Robinson Buffer having an ionic strength of 0.2 was used.

A short description of data set [4]: Toxicity.

Each structure is given as a SMILES string. Converted amounts (≈) assume the structure as drawn.

Consider `CC(C)C(NC(=O)Cn1c(-c2ccccc2)ncc(N)c1=O)C(=O)c1nnc(C(C)(C)C)o1` (racemic) [Type-1 crystals, 2-[5-Amino-6-oxo-2-phenyl-1,6-dihydro-1-pyrimidyl]-N-[1-(2-[5-t-butyl-1,3,4-oxadiazolyl]carbonyl)-2-(R,S)-methylpropyl]acetamide, reference compound], for which the “Stability of the form in water” value in data set [1] is “promptly results in precipitation of Type-2 crystals”.
`CC(C)C(NC(=O)Cn1c(-c2ccccc2)ncc(N)c1=O)C(=O)c1nnc(C(C)(C)C)o1` (racemic) [compound of the present invention, 2-[5-amino-6-oxo-2-phenyl-1,6-dihydro-1-pyrimidyl]-N-[1-(2-[5-t-butyl-1,3,4-oxadiazolyl]carbonyl)-2-(R,S)-methylpropyl]acetamide]: in data set [2], the “Stability (conclusion from Table 6)” value is on record as “sufficiently stable”. Further, the solubility (as a rule, the concentration that dissolves in the medium under given conditions) at 35 min in data set [3] (aqueous buffer, thermodynamic from solid, Buffer pH 3.0 (Briton-Robinson, ionic strength 0.2), pH at dissolution 3.0) turned out to be 0.122 mg/mL (≈ 270 µM); in data set [3] (aqueous buffer, thermodynamic from solid, Buffer pH 5.0 (Briton-Robinson, ionic strength 0.2), pH at dissolution 5.0) it was 0.104 mg/mL (≈ 230 µM); in data set [3] (aqueous buffer, thermodynamic from solid, Buffer pH 7.0 (Briton-Robinson, ionic strength 0.2), pH at dissolution 7.0) it was 0.094 mg/mL (≈ 208 µM); in data set [3] (aqueous buffer, thermodynamic from solid, Buffer pH 9.0 (Briton-Robinson, ionic strength 0.2), pH at dissolution 8.6) it was 0.045 mg/mL (≈ 99.4 µM); in data set [3] (organic solvent or mixture, thermodynamic from solid, solvent: Acetonitrile) it was 19.1 mg/mL (≈ 42200 µM); in data set [3] (organic solvent or mixture, thermodynamic from solid, solvent: Ethanol), 7.29 mg/mL (≈ 16100 µM). In addition, the solubility at 35 min in data set [3] (organic solvent or mixture, thermodynamic from solid, solvent: Methanol) stood at 33.6 mg/mL (≈ 74300 µM); in data set [3] (organic solvent or mixture, thermodynamic from solid, solvent: Octanol), 0.71 mg/mL (≈ 1570 µM); in data set [3] (pH 7.3, thermodynamic from solid, solvent: Purified water, pH at dissolution 7.3), 0.073 mg/mL (≈ 161 µM). Also, the Toxicity entry in data set [4] is “sufficiently low toxicity”.
